The source of these data is DBAASP.

Structures are written as SMILES. ≈ marks a conversion by molar mass, not a printed value. Bounds are passed on as bounds.

Among the test systems are Citrobacter koseri; Escherichia coli BL21; Pseudomonas aeruginosa; Escherichia coli JM109; Salmonella enterica; Staphylococcus xylosus; Vibrio cholerae; Escherichia coli MG1655.
Holding throughout (experiment): ≥ marks a high value that may be exact or a test limit, other limits are often not marked, values filed in µg/mL are converted to µM
Assay [1] deals with Staphylococcus aureus ATCC 25923.
For assay [2], the system named is Escherichia coli ATCC 25922.
The test system of assay [3] is Pseudomonas aeruginosa ATCC 27853.
In assay [4] the test system is Escherichia coli NCTC 10418.
Assay [5] concerns Pseudomonas aeruginosa CIP A22.
Assay [6] has as its system Staphylococcus aureus NCTC 10788.
Assay [7] deals with Escherichia coli ATCC 54127.
For assay [8], the system named is Streptococcus alactolyticus.
The subject of assay [9] is Vibrio parahaemolyticus CCRC 10806.
For assay [10], the system named is Staphylococcus aureus CCRC 15211.
Assay [11] relates to Staphylococcus aureus CCRC 12652.
The subject of assay [12] is Salmonella typhimurium CCRC 12947.
Assay [13] relates to Klebsiella pneumoniae CCRC 10694.
The test system of assay [14] is Staphylococcus aureus MTCC 9542.
In assay [15] the test system is Enterococcus faecalis ATCC 29212.
The test system of assay [16] is Staphylococcus aureus ATCC 43300.
Assay [17] relates to Bacillus subtilis MTCC 14416.

By MIC is commonly meant the smallest concentration in the dilution series that meets the test's criterion for growth inhibition. Lower therefore signals inhibition by little substance. Turning to `CC[C@H](C)[C@H](NC(=O)[C@H](CC(=O)O)NC(=O)[C@H](CCCCN)NC(=O)[C@H](Cc1c[nH]c2ccccc12)NC(=O)[C@H](CC(C)C)NC(=O)[C@H](C)N)C(=O)N[C@@H](CC(C)C)C(=O)N[C@@H](CCCCN)C(=O)N[C@@H](CC(N)=O)C(=O)N[C@H](C(=O)NCC(=O)N[C@@H](CCCCN)C(=O)N[C@@H](C)C(=O)N[C@@H](C)C(=O)NCC(=O)N[C@@H](CCCCN)C(=O)N[C@@H](C)C(=O)N[C@H](C(=O)N[C@@H](CC(C)C)C(=O)N[C@@H](CC(N)=O)C(=O)N[C@H](C(=O)N[C@H](C(=O)N[C@H](C(=O)N[C@@H](CC(=O)O)C(=O)N[C@@H](CCSC)C(=O)N[C@H](C(=O)N[C@@H](CC(N)=O)C(=O)N[C@@H](CCC(N)=O)C(N)=O)C(C)C)[C@@H](C)O)C(C)C)[C@@H](C)O)C(C)C)C(C)C` [ALWKDILKNVGKAAGKAVLNTVTDMVNQ], the MIC in [1] stood at 3 µM (≈ 8.99 µg/mL); in [2] it was 5 µM (≈ 15 µg/mL); in assay [3], 11.6 µM (≈ 34.8 µg/mL); in assay [4], 5 µM (≈ 15 µg/mL); in assay [5] it was 4.6 µM (≈ 13.8 µg/mL); in assay [6] it was 3 µM (≈ 8.99 µg/mL). This compound also displayed an MIC in assay [7] of 2.3 µM (≈ 6.89 µg/mL).
Regarding `CC[C@H](C)[C@H](N)C(=O)N[C@@H](CCCCN)C(=O)N[C@@H](Cc1c[nH]c2ccccc12)C(=O)N[C@@H](CCCCN)C(=O)N[C@@H](C)C(=O)N[C@H](C(=O)N[C@@H](CC(C)C)C(=O)N[C@@H](CC(=O)O)C(=O)N[C@@H](C)C(=O)N[C@H](C(=O)N[C@@H](CCCCN)C(=O)N[C@@H](CCCCN)C(=O)N[C@H](C(=O)N[C@H](C(N)=O)[C@@H](C)CC)C(C)C)C(C)C)[C@@H](C)CC` [IKWKAILDAVKKVI], the minimum inhibitory concentration (MIC) is 7.38 µM (≈ 12 µg/mL) in assay [8]; 9.85 µM (≈ 16 µg/mL) in assay [9]; 2.46 µM (≈ 4 µg/mL) against Citrobacter koseri; at least 39.4 µM in assay [10]; 4.92 µM (≈ 8 µg/mL) with Escherichia coli BL21; 118 µM (≈ 192 µg/mL) against Pseudomonas aeruginosa. Further, the MIC against Escherichia coli JM109 was found to be 4.92 µM (≈ 8 µg/mL); against Salmonella enterica, 19.7 µM (≈ 32 µg/mL); in [11] it was 19.7 µM (≈ 32 µg/mL); in assay [12] it was 19.7 µM (≈ 32 µg/mL); against Staphylococcus xylosus it was 1.23 µM (≈ 2 µg/mL); in assay [13], 19.7 µM (≈ 32 µg/mL).
Regarding `CC[C@H](C)[C@H](NC(=O)[C@H](CCCCN)NC(=O)[C@@H]1CCCN1C(=O)[C@H](CC(C)C)NC(=O)[C@H](Cc1ccccc1)NC(=O)[C@H](CC(N)=O)NC(=O)[C@H](C)NC(=O)[C@H](C)NC(=O)[C@H](CC(C)C)NC(=O)CNC(=O)[C@H](C)NC(=O)[C@H](CC(C)C)NC(=O)[C@H](CC(C)C)NC(=O)[C@@H]1CCCN1C(=O)[C@@H](N)CC(C)C)C(=O)N[C@@H](Cc1ccccc1)C(=O)N[C@@H](CS)C(=O)N[C@@H](CCCCN)C(=O)N[C@H](C(=O)N[C@H](C(=O)N[C@@H](CCCN=C(N)N)C(=O)N[C@@H](CCCCN)C(N)=O)[C@@H](C)O)[C@@H](C)CC` [LPLLAGLAANFLPKIFCKITRK], the MIC came to 2.57 µM (≈ 6.25 µg/mL) in [14]; 41.2 µM (≈ 100 µg/mL) in assay [15]; 5.15 µM (≈ 12.5 µg/mL) in the assay on Vibrio cholerae; 2.57 µM (≈ 6.25 µg/mL) with Escherichia coli MG1655; 20.6 µM (≈ 50 µg/mL) in assay [16]; 5.15 µM (≈ 12.5 µg/mL) in [17].
